Laboratory results taken from PMC9318133 (International Journal of Molecular Sciences, 2022).

Key:
[1] = Plasma (and brain) levels of JWH-175 and JWH-018 in mice by LC-MS/MS; assay type: in vivo, mouse; details: for presence in the brain tissue of mice systemically treated with JWH-175: data not shown
Method: For the in vivo studies, three different groups of mice were selected. […] Urine specimens were collected from mice individually placed inside metabolic cages (Ugo Basile SRL, Gemonio (VA), Italy) with free access to water and food. The same dose of JWH-175 was administered to the second group, and behavioral tests were performed before the blood collection. Tests and sampling were carried out, at 0, 30, 60, and 300 min, on a sub-group of six mice at each time interval. The same behavioral studies and blood sampling were performed on the third group, to which JWH-018 (10 mg/kg) was injected. Blood samples (mean total volume: 500 μL) were collected by submandibular blood collection technique into 1 mL vials containing EDTA (4 mg/mL of blood) as preservative and anticoagulant. After each blood withdrawal, an equal volume of saline solution was subcutaneously injected into mice to maintain volume and osmotic homeostasis. Plasma from collected blood and urine samples were stocked at −20 °C until the analysis.
For blood metabolic profile, samples were centrifugated at 9000× g rpm for 8 min to obtain plasma. Then, 200 µL of the supernatant was added to 500 μL of acetonitrile and centrifugated at 13,000× g rpm for 3 min. The aqueous layer was then collected and added to 50 μL of internal standard solution (10 μg/mL) and 500 μL of phosphate buffer (0.8 M, pH 7.4). Samples were then incubated for 1 h at 55 °C. After hydrolysis, samples were extracted with 5 mL of ethyl acetate. The organic solvent was then dried under nitrogen flow at 40 °C, and the dry residue was resolved in 50 μL of mobile phase and an aliquot of 10 µL was injected into the LC-MS systems.
Samples were analyzed using an Agilent 1200 series high-performance liquid chromatography (HPLC) instrument equipped with a SUPELCO C18 column (15 cm × 2.1 mm × 5 µm) coupled with a Sciex 5500QTRAP triple quadrupole mass spectrometer (Sciex, Milan, Italy) with an ESI source operated in positive ionization mode. Analyses were carried out at a constant flow rate of 250 µL/min using ultra-purified water, 0.1% formic acid (A), and acetonitrile 0.1% formic acid (B) as mobile phase. The gradient started at 5% eluent B, was increased to 65% eluent B in 7 min and after 4 min to 95% eluent B in 2 min, held for 4.5 min, decreased to starting conditions of 5% eluent B in 0.31 min, and held for 2 min for re-equilibration
Multiple reaction monitoring (MRM) was used as the acquisition mode (see Table 3). The MRM method was optimized starting from the protocol employed in our laboratory.

[2] = tested on: fEPSP of CA1 area of mouse hippocampal slice; test: Electrophysiological recording of fEPSP in hippocampal slices; assay type: cell-based; details: for fEPSP slope, % changes compared to control condition: steady state
Method: Procedures for tissue preparation are the same as those described by Ossato et al., 2016 [45]. In brief, after mouse decapitation, the head was immediately chilled in refrigerated artificial cerebrospinal fluid (aCSF, 0 °C) of the following composition (in mM): NaCl, 126; KCl, 2; KH2PO4, 1.25; NaHCO3, 26; MgSO4, 2.0; CaCl2, 2.5; d-glucose, 10. After 1 min, the brain was extracted to isolate the hippocampus and then placed in ice-cold artificial cerebrospinal fluid (aCSF). All solutions were saturated with 95% O2/5% CO2. Transverse hippocampal slices (425 μm thick) were cut with a tissue chopper and then placed for almost 90 min in a Haas-style incubation chamber for recovery before recording.
A single slice was transferred into a submerged-type recording chamber (3 mL total volume) and continuously superfused (3.0 mL/min) with warmed (32–33 °C) aCSF. WINLTP 2.10 computer software was used for stimulus triggering, PC recording, and analysis. Synaptic responses of CA1 pyramidal neurons were elicited by electrical stimulation of the Schaffer collateral/commissural pathway. Single stimulation pulses (80 µs duration; 0.05 Hz) were delivered by mean of a concentric bipolar electrode (o.d. 125 μm, FHC, USA) connected to a Grass S11 stimulator driving a PSIU6 constant current stimulus isolation unit. To record the fEPSPs, borosilicate glass electrodes fabricated using a microelectrode puller (P97, Sutter Instruments) and filled with aCSF (1.5 ± 0.5 MΩ), inserted in the distal third of the stratum radiatum and 200–300 µm away from stimulating electrodes, were used. The maximal fEPSPs response was reached by adjusting the recording electrode depth. Recorded potentials were amplified (Axoprobe 1A DC-coupled—Cyberamp 320, Molecular Devices, Sunnyvale, CA, USA) and filtered (5.0 kHz) prior to A/D conversion. Upon 10 min of stable synaptic response, a stimulus–response curve (SRC) was generated as previously described to extrapolate a stimulation intensity evoking 70% of maximal fEPSP, to be used throughout the experiment. […] To investigate whether the vehicle had any effect on synaptic activity, the superfusion inlet was switched to a reservoir containing aCSF plus the amount of vehicle present for the corresponding drug concentration (sham application), before switching to the solution also including the drug, for comparison. All reservoirs and tubing were on glass or Teflon to avoid the capturing of cannabinoids by plastic or silicon parts.
We analyzed data from in vitro recordings as previously described. […] Effect of treatment was considered steady state when stable +/− 5% for 10 min.

human CB1 receptors = target: T1, human CB1 receptors (Homo sapiens, UniProt P21554); test: [3H]-CP-55,940 competition binding, CHO cell membranes transfected with human CB1 receptors
T1 construct: host or cells: CHO cells
T1 sequence (P21554 whole entry): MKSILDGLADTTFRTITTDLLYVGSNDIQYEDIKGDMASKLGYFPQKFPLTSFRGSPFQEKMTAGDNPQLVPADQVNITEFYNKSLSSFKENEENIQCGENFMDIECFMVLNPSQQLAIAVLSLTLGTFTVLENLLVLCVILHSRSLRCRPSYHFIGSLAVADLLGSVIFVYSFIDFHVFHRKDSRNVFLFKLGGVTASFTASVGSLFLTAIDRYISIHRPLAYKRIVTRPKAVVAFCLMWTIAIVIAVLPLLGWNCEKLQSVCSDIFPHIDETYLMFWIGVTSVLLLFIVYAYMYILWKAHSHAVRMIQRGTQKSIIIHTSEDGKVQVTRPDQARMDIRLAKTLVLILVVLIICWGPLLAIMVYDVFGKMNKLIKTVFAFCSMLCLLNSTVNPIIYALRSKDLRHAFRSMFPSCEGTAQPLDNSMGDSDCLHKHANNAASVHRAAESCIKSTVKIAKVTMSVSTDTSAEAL
Method: To obtain membranes, cells were washed with phosphate-buffered saline (PBS) and scraped off with ice-cold hypotonic buffer (5 mM Tris HCl, 2 mM EDTA, pH 7.4). The cell suspension was homogenized with a Polytron and then centrifuged for 30 min at 40,000× g. The membrane pellet was suspended in 50 mM Tris HCl buffer (pH 7.4) containing 2.5 mM ethylenediaminetetraacetic acid (EDTA), 5 mM MgCl2, and 0.5 mg/mL bovine serum albumin (BSA) for CB1 receptors or in 50 mM Tris HCl (pH 7.4), 1 mM EDTA, 5 mM MgCl2, and 0.5% BSA for CB2 receptors.
For human cannabinoid receptors, membranes obtained from CHO cells transfected with human CB1 or CB2 receptors (2 µg protein/100 µL) were used. Competition binding experiments at murine cannabinoid receptors were performed with mouse brain membranes (40 µg protein/100 µL) or with mouse spleen membranes (80 µg protein/100 µL) for CB1 receptors or CB2 receptors, respectively. […] Bound and free radioactivity were separated by filtering the assay mixture through Whatman GF/C glass fiber filters using a Brandel cell harvester (Brandel Instruments, Unterföhring, Germany).
The protein concentration was determined according to a Bio-Rad method with bovine serum albumin as a reference standard. Inhibitory binding constants, Ki, were calculated from the IC50 values according to the Cheng and Prusoff equation:Ki = IC50/(1 + [C*]/KD*) where [C*] is the concentration of the radioligand and KD* its dissociation constant. Functional experiments were analyzed by non-linear regression analysis using the equation for a sigmoid concentration–response curve (GraphPad Prism, San Diego, CA, USA). All the data are expressed as the mean ± SEM of three independent experiments.

Row | SMILES | time of peak plasmatic concentration of JWH-018 ([1]; JWH-018 10 mg/kg i.p., mouse plasma) [min] | presence in the brain tissue of mice systemically treated with JWH-175 [1] | fEPSP slope, % changes compared to control condition ([2]; 0.1 µM) [%] | fEPSP slope, % changes compared to control condition ([2]; 0.3 µM) [%] | fEPSP slope, % changes compared to control condition ([2]; 1 µM, last 3 min of recording) [%] | selectivity index (ratio between the Ki value to human CB2 and the Ki value to human CB1) (human CB1 receptors; human CB2 / human CB1) | fold higher affinity than JWH-175 at human CB1 receptors (human CB1 receptors; ratio of Ki values, CHO cell membranes) [fold] | time after administration within which JWH-175 itself was detected in plasma ([1]; JWH-175 10 mg/kg i.p., mouse plasma) [min] | effect on fEPSP ([2]; 0.01−0.3 µM) | times less potent than JWH-018 in inhibiting fEPSP ([2]; CA1 hippocampal slices, 0.01–1 µM) | Ki (human CB1 receptors) [nM]
1 | CCCCCn1cc(C(=O)c2cccc3ccccc23)c2ccccc21 [JWH-018, 1-naphthalenyl(1-pentyl-1H-indol-3-yl)-methanone] | 30 | presence | −34.7 ± 7.9 | −40.4 ± 8.4 | −48.8 ± 7.6 | 0.9 | 2.71 |  |  |  | 
2 | CCCCCn1cc(Cc2cccc3ccccc23)c2ccccc21 [JWH-175, 3-(1-naphthalenylmethyl)-1-pentyl-1H-indole] |  | only traces |  |  | −23.7 ± 5.7 |  |  | ≤ 30 | failed to affect fEPSP | about 10 times | 25.8 ± 1.9
